Experimental findings from ChEMBL document CHEMBL1148972, “Isomalabaricane-type compounds from the marine sponge Rhabdastrella aff. distincta” (J Nat Prod, 2004) are described below.

Format in all cases: functional, cell-based
Assay [1] has as its system HL-60. The assay can be described thus: Cytotoxicity against human HL60 cells after 48 hrs by MTT assay. To be noted: HL-60, 48 h.
The nature of assay [2]: Cytotoxicity against human PC-3MIE8 cells after 48 hrs by MTT assay. To be noted: PC-3MIE8, 48 h.
In assay [3] the test system is BGC-823. Put plainly: Cytotoxicity against human BGC823 cells after 48 hrs by MTT assay. To be noted: BGC-823, 48 h.
Assay [4] can be described thus: Cytotoxicity against human […] cells after 48 hrs by MTT assay.
The subject of assay [5] is Bel-7402. Put plainly: Cytotoxicity against human Bel7402 cells after 48 hrs by MTT assay. Conditions: Bel-7402, 48 h.
In assay [6] the test system is HeLa. The assay can be described thus: Cytotoxicity against human HeLa cells after 48 hrs by MTT assay.

≈ marks a conversion by molar mass, not a printed value. A value given as a limit tells only on which side of the number the result lay.

In the case of `CC(=O)/C=C\C(=O)/C(C)=C/C=C/C(C)=C1/C(=O)C[C@H]2[C@@]3(C)CCC(=O)C(C)(C)[C@@H]3CC[C@]12C`, the IC50 in assay [1], in assay [2], in assay [3], in assay [4], in assay [5] and in assay [6] was greater than 5 µg/mL in each case.
With `CC1=CC[C@@H](/C(C)=C/C=C/C(C)=C2\C(=O)C[C@H]3[C@@]4(C)CCC(=O)C(C)(C)[C@@H]4CC[C@]23C)OC1=O` [22,23-DIHYDROSTELLETTIN B], the IC50 in assay [1], in assay [2], in assay [3], in assay [4], in assay [5] and in assay [6] was greater than 5 µg/mL throughout.
Take `COc1cc2c(c(OC)c1OC)-c1ccc(OC)c(=O)cc1[C@@H](NC(C)=O)CC2` [COLCHICINE]: the IC50 was 1.6 µg/mL (≈ 4.01 µM) in assay [1]; 0.7 µg/mL (≈ 1.75 µM) in assay [2]; 0.6 µg/mL (≈ 1.5 µM) in assay [3]; 0.2 µg/mL (≈ 0.501 µM) in assay [4]; 0.3 µg/mL (≈ 0.751 µM) in assay [5]; 0.1 µg/mL (≈ 0.25 µM) in assay [6].
`CC(=O)/C=C/C(=O)/C(C)=C/C=C/C(C)=C1\C(=O)C[C@H]2[C@@]3(C)CCC(=O)C(C)(C)[C@@H]3CC[C@]12C` [GEODITIN A]: the IC50 in assay [1], in assay [2], in assay [3], in assay [4], in assay [5] and in assay [6] was greater than 5 µg/mL each time.
As for `CC(=O)/C=C/C(=O)/C(C)=C/C=C/C(C)=C1\C(=O)C[C@H]2[C@@]3(C)CC[C@H](OC(C)=O)C(C)(C)[C@@H]3CC[C@]12C` [GEODITIN B], the IC50 in assay [1], in assay [2], in assay [3], in assay [4], in assay [5] and in assay [6] was greater than 5 µg/mL each time.
Regarding `CC(=O)/C=C\C(=O)/C(C)=C/C=C/C(C)=C1\C(=O)C[C@H]2[C@@]3(C)CCC(=O)C(C)(C)[C@@H]3CC[C@]12C` [ISOGEODITIN A], the IC50 in assay [1] worked out at 0.13 µg/mL (≈ 0.288 µM); in assay [2], 0.07 µg/mL (≈ 0.155 µM); in assay [3], 0.47 µg/mL (≈ 1.04 µM); in assay [4], 1.2 µg/mL (≈ 2.66 µM); in assay [5], 3.7 µg/mL (≈ 8.21 µM); in assay [6] it was 0.35 µg/mL (≈ 0.777 µM).
On to `CC(=O)/C=C\C(=O)/C(C)=C/C=C/C(C)=C1\C(=O)C[C@H]2[C@@]3(C)CC[C@H](OC(C)=O)C(C)(C)[C@@H]3CC[C@]12C` [ISOGEODITIN B], for which the IC50 in assay [1] came out at 0.5 µg/mL (≈ 1.01 µM); in assay [2] it was 3.4 µg/mL (≈ 6.87 µM); in assay [3], 2.2 µg/mL (≈ 4.45 µM); in assay [4], 2.2 µg/mL (≈ 4.45 µM); in assay [5] it was 3.9 µg/mL (≈ 7.88 µM); in assay [6] it was 3 µg/mL (≈ 6.06 µM).
For the molecule `COC(=O)/C(C)=C/C=C/C(C)=C/C=C/C(C)=C1/C(=O)C[C@H]2[C@@]3(C)CCC(=O)C(C)(C)[C@@H]3CC[C@]12C` [RHABDASTRELLIC ACID A METHYL ESTER], the IC50 in assay [1], in assay [2], in assay [3], in assay [4], in assay [5] and in assay [6] was greater than 5 µg/mL throughout.
Take `CC(/C=C/C=C(\C)C(=O)O)=C\C=C\C(C)=C1\C(=O)C[C@H]2[C@@]3(C)CCC(=O)C(C)(C)[C@@H]3CC[C@]12C` [RHABDASTRELLIC ACID A]: the IC50 in assay [1], in assay [2], in assay [3], in assay [4], in assay [5] and in assay [6] was greater than 5 µg/mL throughout.
As to `C\C(=C/C=C/C(C)=C1/C(=O)C[C@H]2[C@@]3(C)CCC(=O)C(C)(C)[C@@H]3CC[C@]12C)c1ccc(C)c(=O)o1` [STELLETIN A], the IC50 in assay [1], in assay [2], in assay [3], in assay [4], in assay [5] and in assay [6] was greater than 5 µg/mL each time.
For the molecule `CC(/C=C/C=C(C)/C=C/C=C(\C)C(=O)O)=C1/C(=O)C[C@H]2[C@@]3(C)CCC(=O)C(C)(C)[C@@H]3CC[C@]12C` [STELLETIN E], the IC50 in assay [1], in assay [2], in assay [3], in assay [4], in assay [5] and in assay [6] was greater than 5 µg/mL in each case.
As for `CC(/C=C/C=C(\C)c1ccc(C)c(=O)o1)=C1/C(=O)C[C@H]2[C@@]3(C)CCC(=O)C(C)(C)[C@@H]3CC[C@]12C` [STELLETTIN B], the IC50 in assay [1] is 0.2 µg/mL (≈ 0.432 µM); in assay [2], greater than 5 µg/mL; in assay [3], greater than 5 µg/mL; in assay [4] it was greater than 5 µg/mL; in assay [5], greater than 5 µg/mL; in assay [6], greater than 5 µg/mL.
Turning to `CC(=O)O[C@H]1CC[C@@]2(C)[C@@H](CC[C@]3(C)\C(=C(C)/C=C/C=C(\C)c4ccc(C)c(=O)o4)C(=O)C[C@@H]23)C1(C)C` [STELLETTIN C], the IC50 is greater than 5 µg/mL in assay [1]; 3.1 µg/mL (≈ 6.12 µM) in assay [2]; greater than 5 µg/mL in assay [3]; greater than 5 µg/mL in assay [4]; greater than 5 µg/mL in assay [5]; greater than 5 µg/mL in assay [6].
As to `COC(=O)/C(C)=C/C=C/C(C)=C/C=C/C(C)=C1\C(=O)C[C@H]2[C@@]3(C)CCC(=O)C(C)(C)[C@@H]3CC[C@]12C` [STELLETTIN E METHYL ESTER], the IC50 is 4.2 µg/mL (≈ 8.77 µM) in assay [1]; greater than 5 µg/mL in assay [2]; greater than 5 µg/mL in assay [3]; greater than 5 µg/mL in assay [4]; greater than 5 µg/mL in assay [5]; greater than 5 µg/mL in assay [6].
